Measurements reported in patent US8012944B2, “Method for treating cancer using IAP antisense oligomer and chemotherapeutic agent” (Pharmascience Inc., priority 2003, dated 2011).
Oligonucleotides are written 5' to 3', each unit as a sugar letter and its base; * is a phosphorothioate linkage, no mark a phosphodiester; rarer units and linkages stand in square brackets, end groups in braces. Plain capitals give the bases only. d = 2'-deoxy (DNA); m = 2'-O-methyl

Tests used:
Assay type in all cases: cell-based, human
[1] = system: XIAP RNA; assay: XIAP RNA knock-down in T24 cells (TaqMan quantitative PCR)
Description: (§1) We used TaqMan quantitative PCR (described below) to assay for changes in mRNA levels after oligonucleotide treatment. We employed ELISA for determining XIAP protein levels and western blotting for determining HIAP1 protein levels. Transfection conditions were optimized with Lipofectamine plus or Lipofectamine 2000 (Life Technologies, Canada) on T24 bladder carcinoma cells or H460 non-small cell lung carcinoma cells, or lipofectin on SF-295 glioblastoma cells, using a fluorescein-tagged sense oligonucleotide (5′-mGmAGAAGATGACTGGTAAmCmA-3′; SEQ ID NO: 261) from XIAP spanning the start codon as a control. The results were visualized and gauged by epi-fluorescence microscopy. In the case of T24 cells, transfections were further optimized based on the ability of a published oligonucleotide to downregulate survivin expression (Li et al., Nat. Cell Biol. 1:461-466, 1999) (5′-U/TGTGCTATTCTGTGAAU/TU/T-3′ SEQ ID NO: 262). We optimized the transfection conditions based on the TaqMan results of survivin RNA knock-down detected with PCR primers and fluorescent probe, described in detail below. […] We then applied these conditions to screen for XIAP protein knock-down using the oligo library against T24 cells.
(§2) RNA was extracted from cells lysed in RLT buffer (QIAGEN, Valencia, Calif.), and purified using QIAGEN RNeasy columns/kits. Real-time quantitative PCR was performed on a Perkin-Elmer ABI 7700 Prism PCR machine. RNA was reverse transcribed and amplified according to the TaqMan Universal PCR Master Mix protocol of PE Biosystems, using primers and probes designed to specifically recognize XIAP, HIAP1, survivin, or GAPDH. For human survivin, the forward primer was 5′-[…]-3′ (SEQ ID NO: 263), the reverse primer was 5′-GAAAGGAAAGCGCAACCG-3′ (SEQ ID NO: 264), and the probe was 5′-(FAM)[…](TAMRA)-3′ (SEQ ID NO: 265). For human HIAP1, the forward primer was 5′-[…]-3′ (SEQ ID NO: 266), the reverse primer was 5′-[…]-3′ (SEQ ID NO: 267), and the probe was 5′-(FAM)[…](TAMRA)-3′ (SEQ ID NO: 268). For human XIAP, the forward primer was 5′-[…]-3′ (SEQ ID NO: 269), the reverse primer was 5′-[…]-3′ (SEQ ID NO: 270), and the probe was 5′-(FAM)[…](TAMRA)-3′ (SEQ ID NO: 271). For human GAPDH, the forward primer was 5′-GAAGGTGAAGGTCGGAGTC-3′ (SEQ ID NO: 272), the reverse primer was 5′-GAAGATGGTGATGGGATTC-3′ (SEQ ID NO: 273), and the probe was 5′-(JOE)[…](TAMRA)-3′ (SEQ ID NO: 274). FAM is 6-carboxyfluoroscein, JOE is 6-carboxy-4,5-dichloro-2,7-dimethoxyfluoroscein, and TAMRA is 6-carboxy-N,N,N′,N′-tetramethylrhodamine. FAM and JOE are 5′ reporter dyes, while TAMRA is a 3′ quencher dye.
(§3) Relative quantification of gene expression was performed as described in the PE Biosystems manual using GAPDH as an internal standard. The comparative Ct (cycle threshold) method was used for relative quantitation of IAP mRNA levels compared to GAPDH mRNA levels. Briefly, real-time fluorescence measurements were taken at each PCR cycle and the threshold cycle (Ct) value for each sample was calculated by determining the point at which fluorescence exceeded a threshold limit of 30 times the baseline standard deviation. The average baseline value and the baseline SD are calculated starting from the third cycle baseline value and stopping at the baseline value three cycles before the signal starts to exponentially rise. The PCR primers and/or probes for the specific IAPs were designed to span at least one exon-intron boundary separated by 1 kb or more of genomic DNA, to reduce the possibility of amplifying and detecting genomic DNA contamination. The specificity of the signal, and possible contamination from DNA, were verified by treating some RNA samples with either DNase or RNase, prior to performing the reverse transcription and PCR reaction steps.
The XIAP synthetic library of 96 antisense oligonucleotides was first screened for decreases in XIAP protein levels. […]

[2] = system: XIAP protein; assay: XIAP protein knock-down in T24 cells (XIAP ELISA, relative to total protein); conditions: for XIAP protein levels relative to total protein, compared to mock transfection (in words): first screen of the library
Description: as §1
A standard colorimetric XIAP ELISA assay was performed using an affinity-purified rabbit polyclonal antibody to XIAP as a capture antibody, and was detected with a XIAP monoclonal antibody (MBL, Japan) and a biotinylated anti-mouse Ig antibody and horseradish peroxidase-conjugated streptavidin and TMB substrate. Alternatively, a polyclonal XIAP or HIAP1 antibody may be used to measure XIAP or HIAP1 protein levels, respectively.
The XIAP synthetic library of 96 antisense oligonucleotides was first screened for decreases in XIAP protein levels. Specifically, T24 cells (1.5×10^4 cells/well) were seeded in wells of a 96-well plate on day 1, and were cultured in antibiotic-free McCoy's medium for 24 hours. On day 2, the cells were transfected with XIAP antisense oligonucleotides as described above (oligonucleotides are labeled according to their plated position, i.e., A1 to H12, and include two repeats, A13 and B13 that contain lyophilized DNA pellets that stuck to the sealing membrane). Briefly, the nucleobase oligomers were diluted in 10 μl/well of serum-free, antibiotic-free McCoy's medium and then PLUS reagent was added. Lipofectamine was diluted in 10 μl/well of serum-free, antibiotic-free McCoy's medium, and both mixes were incubated for 15 minutes at room temperature. The mixes were then combined and incubated for 15 minutes at room temperature.
In the meantime, the complete medium was removed from the cells and 50 μl/well of serum-free, antibiotic-free medium was added to the cells. The transfection mixes were added to the well, and the cells were incubated for three hours. Then 30 μl/well of serum-free, antibiotic-free medium and 100 μl/well of antibiotic-free complete medium, containing 20% fetal bovine serum were added to each well.
At day 3, XIAP RNA levels were measured using quantitative real-time PCR techniques, as described above. At day 4, XIAP protein levels were measured by ELISA (FIGS. 1A, 1C, 1E, 1G, 1I, and 1K), and total cellular protein was measured biochemically (FIGS. 1B, 1D, 1F, 1H, 1J, and 1L; used to normalize the XIAP protein levels). The results were compared to a mock transfection sample (treated with the transfection agent but no oligonucleotide DNA was added, and then processed as for the other samples). Time course experiments determined that the optimal time for protein knock-down to be around 12 to 24 hours. […]

[3] = system: XIAP mRNA; assay: XIAP mRNA knock-down in H460 cells (real-time RT-PCR / TaqMan)
Description: as §2, §3
A portion of the 96 nucleobase oligomers depicted in Table 2 were rescreened for their ability to knock-down XIAP mRNA in NCI-H460 cells at […] post-transfection.
One day prior to transfection, H460 cells were plated in 6- or 96-well tissue culture plates. Phosphorothioate antisense oligonucleotides were delivered into cells with Lipofectamine 2000 (Life Technologies) in the form of liposome-oligonucleotide complexes. Following a 4.5 or 6 h transfection, the transfection medium was replaced with RPMI medium containing 10% FBS, and the cells incubated for another 24 or 48 h.
Total RNA from H460 cells treated with liposome-oligonucleotide complexes for 6 hours was immediately isolated using RNeasy mini spin columns and DNase treatment (QIAGEN, Valencia, Calif.). Specific XIAP mRNA was measured using a real-time quantitative RT-PCR method. […]

[4] = system: HIAP1 mRNA; assay: HIAP1 mRNA in SF295 cells, basal conditions (TaqMan); design: decrease of HIAP1 mRNA compared to mock or scrambled survivin control: concentration or dose not given beside the values; conditions: for HIAP1 mRNA levels (in words): SF295 cells (FIG. 21)
Description: as §2, §3
A library of 15 HIAP1 antisense nucleobase oligomers as oligonucleotides was screened for protein knock-down by western blot analysis and for RNA knock-down by TaqMan, using the primers and probes described in Example 3, above, under two different conditions. HIAP1 RNA levels may be detected using standard Northern blot analyses or RT-PCR techniques. The antisense oligonucleotides were administered to cells under basal conditions or under cycloheximide-induction conditions (24 hour treatment with sub-toxic doses). Cycloheximide (CHX) can lead to a 10- to 200-fold induction of HIAP1 mRNA depending on the cell line treated. […] This effect of CHX is via two distinct mechanisms of action. First, CHX activates NFkB, a known transcriptional inducer of HIAP1, by blocking the de novo synthesis of a labile protein, IkB, which is an inhibitor of NFkB. This effect is mimicked by puromycin, another protein synthesis inhibitor, and by TNF-alpha, which induces a signaling cascade leading to the phosphorylation, ubiquination, and degradation of IkB.
SF295 glioblastoma cells were transfected with lipofectin and oligonucleotide (scrambled survivin, no oligonucleotide, antisense APO 1 to APO 15) or left untreated. […]

[5] = system: XIAP mRNA; assay: XIAP mRNA knock-down in H460 cells (real-time RT-PCR / TaqMan); conditions: 2 × 2 MBO; NCI-H460 cells, 9 hours post-transfection; relative level (mock control 1.01)

GAAAGTAATATTTAAGCAG (antisense; chemistry not fully specified) [Code E2]
XIAP down-regulation T24 RNA [1]: 54% | XIAP down-regulation T24 protein [2]: 51% | XIAP protein levels relative to total protein, compared to mock transfection (in words) [2]: some decrease | XIAP down-regulation H460 RNA [3]: 60%

CCTGTCCTTTAATTCTTAT (chemistry not given here) [APO 13]
HIAP1 mRNA levels (in words) [4]: stress-induced increase in HIAP1 mRNA

ACCCTGGATACCATTTAGC (antisense; chemistry not fully specified) [Code F8]
XIAP protein levels relative to total protein, compared to mock transfection (in words) [2]: some decrease | XIAP down-regulation H460 RNA [3]: 47% | XIAP RNA [5]: 0.62

GCATTTTCGTTATTCATTG (chemistry not given here) [APO 11]
HIAP1 mRNA levels (in words) [4]: stress-induced increase in HIAP1 mRNA

GCTGAGTCTCCATATTGCC [G4] (chemistry not fully specified) [Code G4]
XIAP down-regulation T24 RNA [1]: 34% | XIAP down-regulation T24 protein [2]: 48% | XIAP protein levels relative to total protein, compared to mock transfection (in words) [2]: some decrease | XIAP down-regulation H460 RNA [3]: 51%

TTCAACATGGAGATTCTAA (chemistry not given here) [APO 9]
decrease of HIAP1 mRNA compared to mock or scrambled survivin control ([4]; SF295 cells, six hours after transfection): ~50%

CTACAGCTGCATGACAACT (antisense; sugars from the 5' end m2 d15 m2, backbone and T or U not given here; further chemistry not fully specified) [Code F4]
XIAP down-regulation T24 RNA [1]: 33% | XIAP down-regulation T24 protein [2]: 43% | XIAP protein levels relative to total protein, compared to mock transfection (in words) [2]: some decrease

GGCTGCAATATTTCCTTTT (chemistry not given here) [APO 14]
HIAP1 mRNA levels (in words) [4]: stress-induced increase in HIAP1 mRNA

AGTTTTCAACTTTGTACTG (antisense; sugars from the 5' end m2 d15 m2, backbone and T or U not given here; further chemistry not fully specified) [Code D5]
XIAP down-regulation T24 RNA [1]: 39% | XIAP down-regulation T24 protein [2]: 33% | XIAP protein levels relative to total protein, compared to mock transfection (in words) [2]: some decrease

ACCATTCTGGATACCAGAA (mA*mCdCdAdTdTdCdTdGdGdAdTdAdCdCdAdGmA*mA) [Code C5]
XIAP down-regulation T24 RNA [1]: 71% | XIAP down-regulation T24 protein [2]: 54% | XIAP protein levels relative to total protein, compared to mock transfection (in words) [2]: some decrease

ACCCATGCACAAAACTACC (chemistry not given here) [APO 4]
HIAP1 mRNA levels (in words) [4]: stress-induced increase in HIAP1 mRNA

GTGTAGTAGAGTCCAGCAC (antisense; sugars from the 5' end m2 d15 m2, backbone, methylation of C and T or U not given here; further chemistry not fully specified) [Code F6]
XIAP down-regulation T24 RNA [1]: 34% | XIAP down-regulation T24 protein [2]: 39% | XIAP protein levels relative to total protein, compared to mock transfection (in words) [2]: some decrease

ACACGACCGCTAAGAAACA (antisense ACACGACCGCNAAGAAACA; sugars from the 5' end m2 d15 m2, linkages s1 o16 s1 (s phosphorothioate, o phosphodiester), the base at N not given here) [Code H2]
XIAP down-regulation H460 RNA [3]: 46% | XIAP RNA [5]: 0.56

CAGGGTTCCTCGGGTATAT (antisense; sugars from the 5' end m2 d15 m2, backbone and T or U not given here; further chemistry not fully specified) [Code B6]
XIAP down-regulation T24 RNA [1]: 51% | XIAP down-regulation T24 protein [2]: 47% | XIAP protein levels relative to total protein, compared to mock transfection (in words) [2]: some decrease

TACACTTAGAAATTAAATC (antisense; sugars from the 5' end m2 d15 m2, backbone, methylation of C and T or U not given here; further chemistry not fully specified) [Code A12]
XIAP down-regulation H460 RNA [3]: 46% | XIAP RNA [5]: 0.54
